{"source": "patent US4918099A", "about": "“Drug, preparation and use thereof” (priority 1985, dated 1990)", "key": {"[1]": {"test_system": "plasmalipid", "settings": "spontaneously hypertensive rats; Fette-Seifen-Anstrichmittel 87, 74-76 (1985); cited from earlier work"}, "[2]": {"experiment": "Increase of the peripheral insulin action in diabetic mice", "assay_type": "in vivo", "method": "Diabetic mice were divided into a control group and a test group. A dose of 100 mg of brazilin per kg body weight was daily administered to the animals of the test group; instead of brazilin, the same amount of saline solution was injected intraperitoneally to the animals of the control group.\nAfter 30 test days, the body weight of the animals of the test group was higher and the blood sugar values of these animals were lower as compared to the diabetic animals of the control group.\nOn the 30th test day, the animals were made to fast for 5 h; thereupon, they were injected intravenously with 0.46 mU/g of NPH insulin. Then, the blood sugar values were measured at respective intervals of 5 min."}, "[3]": {"test_system": "platelet aggregation in normal human plasma", "experiment": "Platelet aggregation in normal human plasma induced by ADP", "assay_type": "cell-based", "settings": "for T/min, Aggregation (first value) / Tmax, Aggregation (first value): control 75.1; for activity at 1000 µM / inhibition at 1000 µM / activity at 100 µM / inhibition at 100 µM: Homo sapiens, Platelet; for activity at 1000 µM / activity at 100 µM: control 100", "method": "The platelet aggregation was determined by a tubimetric method in a dual-channel aggregometer, assuming that a platelet-poor plasma represented 100% aggregation and that a platelet-rich plasma represented 0% aggregation. Each aggregometer tube was charged with 40 μl of platelet-rich plasma and 50 μl of test sample solution. The mixture was incubated at 37° C. for 2 min., whereupon 50 μl of ADP solution were added. Percent inhibition of the platelet aggregation caused by the test sample solution was calculated as follows: [formula]"}, "[4]": {"experiment": "Blood sugar lowering effect of brazilin in streptozotocin diabetic SD rats", "assay_type": "in vivo", "method": "By intraperitoneally administering streptozotocin (70 mg per 1 kg body weight in 0.1M of citrate buffer solution, pH 4.0) diabetes was induced in SD rats. 20 days after the injection of streptozotocin the blood sugar values of the laboratory animals were measured. The hyperglycemic rats were divided into two groups, viz. into a control group and a test group. For 10 days a dose of 110 mg of brazilin per kg body weight was daily administered to the animals of the test group. Then, the blood sugar values were measured again."}, "[5]": {"experiment": "Comparison of synthetic substances with full extract", "settings": "synthetically prepared substance"}, "[6]": {"test_system": "fat pads isolated from rats", "experiment": "Glucose oxidation: formation of 14CO2 in fat pads isolated from rats", "assay_type": "in vivo", "excerpt": "Insulin-dependent diabetes mellitus is frequently accompanied by insulin resistance. Frequently an impaired insulin action is also observed with streptozotocin induced diabetic rats. Such an insulin resistance is particularly also attributed to postreceptor defects.\nWith (a) untreated (normal) control animals (rats), (b) diabetic rats, and (c) diabetic brazilin treated rats glucose oxidation and lipogenesis were investigated (by means of the esterified lipids and the free fatty acids). Diabetes was induced by intravenous administration of streptozotocin (40 mg/kg live weight). Brazilin was administered intraperitoneally for 15 days (100 mg/kg body weight). Within the same period the same volume of saline solution was administered to the untreated animals of the control group.\nFor determining the effects of brazilin administration on the glucose oxidation, the method described by Winegard et al. (J. Biol. Chem. 233, 267 (1958)) was used, using ^14 C glucose (1-^14 C-glucose)."}, "[7]": {"test_system": "β-galactosidase", "experiment": "Lysosomal enzyme activity in kidney tissue", "assay_type": "in vivo, mice", "excerpt": "(§1) Possibly, the lysosomal glycosidases active in the kidneys are involved in the micro-angiopathy accompanying diabetes mellitus. Therefore, the lysosomal glycosidase activities upon administration of brazilin and full extract were examined.\n(§2) A number of mice was divided into three groups. Group I, which was used as control group, remained untreated. To the rest of the mice diabetes was induced by administering alloxan. Part of these diabetic mice remained untreated (diabetic control group II); to the rest of the diabetic mice a dose of 100 mg of brazilin per kg body weight was administered daily. After a test period of 10 and 30 days, respectively, kidney tissue was taken from the laboratory animals and the enzyme fraction was determined. In particular, incubation was carried out for 30 min at 37° C., the reaction was stopped by adding 0.05M glycine-NaOH buffer solution (pH 10.4), centrifugation was carried out at 3000 U/min for 10 min, and the amount of p-nitrophenol formed per min and per mg of protein was determined spectrophotometrically at 410 nm at the supernatant."}, "[8]": {"test_system": "α-mannosidase", "experiment": "Lysosomal enzyme activity in kidney tissue", "assay_type": "in vivo, mice", "excerpt": "as §1, §2"}, "[9]": {"test_system": "β-glucuronidase", "experiment": "Lysosomal enzyme activity in kidney tissue", "assay_type": "in vivo, mice", "excerpt": "as §1, §2"}, "[10]": {"test_system": "blood viscosity", "experiment": "Blood viscosity", "assay_type": "in vivo, rats", "method": "Increased blood viscosity and reduced erythrocyte deformability are typical pathological states of diabetic subjects. The effect of brazilin administration to diabetic laboratory animals (rats) on the blood viscosity and erythrocyte deformability of these animals was examined.\nFor administering brazilin, the laboratory animals were daily injected intraperitoneally with a dose of 100 mg of brazilin per kg body weight for 10 days. For inducing diabetes, a dose of 175 mg of alloxan per kg body weight was administered intraperitoneally.\nThe blood viscosity was determined by means of heparinized blood samples relative to distilled water at 37°±0.5° C. The time interval required by 2 ml of liquid to pass between two points of a narrow glass capillary was determined."}, "[11]": {"test_system": "lipid peroxidation in the mitochondria of rat liver", "settings": "Arch. Pharm. Res. 7, 63-64, 1984; cited from earlier work"}, "[12]": {"settings": "diabetic mice, 100 mg/kg daily, 30 days"}}, "note": "“Also recorded” adds a separate entry of the source. Where two headings read alike, the source gives them in different places."}
{"molecule": "Oc1ccc2c(c1)OC[C@]1(O)Cc3cc(O)c(O)cc3[C@H]21", "note": "[brazilin]", "values": [{"measurement": "plasmalipid-reducing effect", "setting": "[1]", "value": "plasmalipid-reducing effect"}, {"measurement": "blood sugar after i.v. NPH insulin", "setting": "[2]; brazilin treated diabetic mice, 0.46 mU/g NPH insulin, day 30, 5 h fasted (FIG. 5)", "value": "marked decrease of the blood sugar values"}, {"measurement": "blood sugar values vs. diabetic control", "setting": "[2]; [12]", "value": "lower"}, {"measurement": "body weight vs. diabetic control", "setting": "[2]; [12]", "value": "higher"}, {"measurement": "T/min, Aggregation (first value)", "setting": "[3]; 10^-3 M", "value": 21.1, "unit": "%"}, {"measurement": "Tmax, Aggregation (first value)", "setting": "[3]; 10^-3 M", "value": 31.5, "unit": "%"}, {"measurement": "T/min, Aggregation (first value)", "setting": "[3]; 10^-4 M", "value": 34.8, "unit": "%"}, {"measurement": "Tmax, Aggregation (first value)", "setting": "[3]; 10^-4 M", "value": 60.7, "unit": "%"}, {"measurement": "activity at 1000 µM", "setting": "[3]; 10^-3 M, read-out: T/min, Aggregation relative to control (second value)", "value": 28.1, "unit": "%"}, {"measurement": "activity at 1000 µM", "setting": "[3]; 10^-3 M, read-out: Tmax, Aggregation relative to control (second value)", "value": 41.8, "unit": "%"}, {"measurement": "inhibition at 1000 µM", "setting": "[3]; 10^-3 M, read-out: T/min, Inhibition", "value": 71.9, "unit": "%"}, {"measurement": "inhibition at 1000 µM", "setting": "[3]; 10^-3 M, read-out: Tmax, Inhibition", "value": 58.2, "unit": "%"}, {"measurement": "activity at 100 µM", "setting": "[3]; 10^-4 M, read-out: T/min, Aggregation relative to control (second value)", "value": 46.4, "unit": "%"}, {"measurement": "activity at 100 µM", "setting": "[3]; 10^-4 M, read-out: Tmax, Aggregation relative to control (second value)", "value": 80.1, "unit": "%"}, {"measurement": "inhibition at 100 µM", "setting": "[3]; 10^-4 M, read-out: T/min, Inhibition", "value": 53.6, "unit": "%"}, {"measurement": "inhibition at 100 µM", "setting": "[3]; 10^-4 M, read-out: Tmax, Inhibition", "value": 19.9, "unit": "%"}, {"measurement": "Blood sugar", "setting": "[4]; diabetic rats, 30 days after onset of diabetes, 110 mg/kg daily 10 days, before treatment (20 days) 266 ± 16.7, diabetic control 337 ± 45.6", "value": "165 ± 42.7", "unit": "mg/100 ml"}, {"measurement": "Blood sugar", "setting": "[4]; normal rats, brazilin treated, 30 days, normal control 79 ± 22.2", "value": "77 ± 20.3", "unit": "mg/100 ml"}, {"measurement": "lowering of the blood sugar values", "setting": "[4]; streptozotocin diabetic rats, 110 mg/kg daily", "value": "significant lowering of the blood sugar values"}, {"measurement": "effects compared with administration of major amounts of full extract", "setting": "[5]", "value": "substantially has the same effects"}, {"measurement": "restoration of initial CO2 production, basal", "setting": "[6]; diabetic rats + brazilin", "value": 74.6, "unit": "%"}, {"measurement": "Glucose→CO2, basal", "setting": "[6]; diabetic rats + brazilin 100 mg/kg i.p. 15 days, n=8, P < 0.01 vs. diabetic control, diabetic 109.1, normal 172.8", "value": "156.6 ± 14.7 nmol/100 mg tissue/120 min"}, {"measurement": "restoration of initial CO2 production, insulin stimulated", "setting": "[6]; diabetic rats + brazilin, insulin 25 ng/ml", "value": 14.5, "unit": "%"}, {"measurement": "Glucose→CO2, insulin stimulated", "setting": "[6]; insulin 25 ng/ml, diabetic rats + brazilin, n=8, P < 0.1 vs diabetic control, diabetic 236.6, normal 694.2", "value": "303.1 ± 19.0 nmol/100 mg tissue/120 min"}, {"measurement": "β-galactosidase activity", "setting": "[7]; after 10 days, p < 0.05 vs. Group II (14.74), Group I 11.53", "value": "12.33 ± 1.95"}, {"measurement": "β-galactosidase activity", "setting": "[7]; after 30 days, p < 0.001 vs. Group II (7.39), Group I 8.90", "value": "10.28 ± 0.55"}, {"measurement": "α-mannosidase activity", "setting": "[8]; after 10 days, p < 0.001 vs. Group II (8.60), Group I 8.72", "value": "12.49 ± 1.34"}, {"measurement": "α-mannosidase activity", "setting": "[8]; after 30 days, p < 0.001 vs. Group II (5.69), Group I 6.57", "value": "5.99 ± 0.54"}, {"measurement": "β-glucuronidase activity", "setting": "[9]; after 10 days, p < 0.025 vs. Group II (3.33), Group I 4.82", "value": "4.02 ± 0.65"}, {"measurement": "β-glucuronidase activity", "setting": "[9]; after 30 days, p < 0.05 vs. Group II (2.31), Group I 2.26", "value": "2.49 ± 0.25"}, {"measurement": "Viscosity", "setting": "[10]; alloxan diabetic rats + brazilin, P < 0.05 vs. diabetic control (1.62)", "value": "1.52 ± 0.07", "unit": "cP"}, {"measurement": "effect on blood viscosity of diabetic animals", "setting": "[10]; diabetic rats vs. control group", "value": "significant decrease of the blood viscosity; also recorded: significant decrease (P<0.05) of blood viscosity"}, {"measurement": "effect on blood viscosity of normal animals", "setting": "[10]; normal + brazilin vs. normal", "value": "No statistical differences"}, {"measurement": "Viscosity", "setting": "[10]; normal rats + brazilin 100 mg/kg i.p. 10 days, 37° C., normal 1.45", "value": "1.40 ± 0.06", "unit": "cP"}, {"measurement": "effect on lipid peroxidation in mitochondria of rat liver", "setting": "[11]", "value": "effect on the lipid peroxidation"}]}
